Measured values reported in patent US6225478A, “Iridoid derivatives and neovascularization inhibitors containing the same as active ingredient” (Tsumura & Co., priority 1999, dated 2001).

How the values were obtained:
[1] = test system: human umbilical-vein endothelial cells (HUVEC); assay: Tube Formation Assay (TFA) Test, HUVEC in collagen gel; type: cell-based; settings: Homo sapiens, HUVEC, Tables 75-83; 0.32 mM sample solution; method as for Compounds 1 through 60; read-out: TFA Inhibition rate (%)
In short: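 HUVEC (7th subculture, 1×10^5 cells/ml) attached to collagen gel for 2 h at 37 °C, given sample and overlaid with collagen, then cultured 20 h at 37 °C, 5% CO2 in M-199 with 20% FCS, 30 ng/ml b-FGF and 0.1 μM PMA. Tube length measured by image analysis; % inhibition relative to positive and negative controls.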

HUFEC = assay: Cell Migration Assay (CMA) Test, inhibitory rate with control (-) correction; type: cell-based, human; settings: Homo sapiens, 24 h, 125 μl of 0.32 mM sample solution in 4.0 ml medium, 80% or more = remarkable
In short: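 Confluent HUFEC monolayers were scratch-wounded, then cultured 24 h at 37 °C, 5% CO2 in M199 (2+) medium with compound added as 125 μl of a 0.32 mM solution (3.2% DMSO) per 4 ml. Giemsa-stained cells migrating into 1 mm×1 mm blocks counted; inhibition % calculated relative to control (+) and control (−) wells.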

SMILES	inhibition at 320 µM (stock) [1] [%]	inhibition at 320 µM (stock) (HUFEC) [%]
COC(=O)C1=CO[C@@H](OC(=O)N2CC=CCC2)[C@H]2[C@@H]1CC[C@@H]2C [I-194]	3	5.5
COC(=O)C1=CO[C@@H](OC(=O)N2CCN(c3ccccc3F)CC2)[C@H]2[C@@H]1CC[C@@H]2C [I-251]	7.9	8.7
COC(=O)C1=CO[C@@H](OC(=O)NCCc2ccc(OC)cc2)[C@@H]2C(C)=CC[C@H]12 [I-98]	3.8	2.7
C=CCNC(=O)O[C@@H]1OC=C(C(=O)OC)[C@H]2CC[C@H](C)[C@@H]12 [I-228]	2.7	7.2
COC(=O)C1=CO[C@@H](OC(=O)NN2CCN(C)CC2)[C@@H]2C(C)=CC[C@H]12 [I-73]	8.2	15.6
COC(=O)C1=CO[C@@H](OC(=O)Nc2ccc([N+](=O)[O-])cc2)[C@@H]2C(C)=CC[C@H]12 [I-168]	4.2	17.2
COC(=O)C1=CO[C@@H](OC(=O)Nc2ccc(C)cc2)[C@@H]2C(C)=CC[C@H]12 [I-169]	13.7	12.6
COC(=O)C1=CO[C@@H](OC(=O)NCc2ccccc2F)[C@H]2[C@@H]1CC[C@@H]2C [I-231]	5.9	9.7
COC(=O)C1=CO[C@@H](OC(=O)NC2CC2)[C@H]2[C@@H]1CC[C@@H]2C [I-218]	5.4	25
COC(=O)C1=CO[C@@H](OC(=O)NCCc2cccs2)[C@H]2[C@@H]1CC[C@@H]2C [I-197]	4.5	20
CCOC(=O)c1ccc(NC(=O)O[C@@H]2OC=C(C(=O)OC)[C@H]3CC=C(C)[C@@H]23)cc1 [I-167]	5.1	4.1
COC(=O)C1=CO[C@@H](OC(=O)NCC2CCCCC2)[C@@H]2C(C)=CC[C@H]12 [I-88]	4.7	16.5
COC(=O)C1=CO[C@@H](OC(=O)N2CCCCC2)[C@@H]2C(C)=CC[C@H]12 [I-111]	2.9	9.4
COC(=O)C1=CO[C@@H](OC(=O)NCc2ccco2)[C@@H]2C(C)=CC[C@H]12 [I-110]	4.6	7.8
CNC(=O)O[C@@H]1OC=C(C(=O)O)[C@H]2CC[C@@H](C)[C@@H]12 [I-281]	31.1	27.9
COC(=O)C1=CO[C@@H](OC(=O)Nc2ccc(OC)cc2)[C@@H]2C(C)=CC[C@H]12 [I-161]	8.2	14.4
COC(=O)C1=CO[C@@H](OC(=O)NC(=O)c2ccccc2)[C@H]2[C@@H]1CC[C@@H]2C [I-272]	7.9	5.7
CNC(=O)O[C@@H]1OC=C(C)[C@H]2CC[C@@H](C)[C@@H]12 [I-283]	11	9.1
COC(=O)C1=CO[C@@H](OC(=O)Nc2ccccc2)[C@@H]2C(C)=CC[C@H]12 [I-170]	12.9	6.7
COC(=O)C1=CO[C@@H](OC(=O)NCc2cccnc2)[C@H]2[C@@H]1CC[C@@H]2C [I-178]	5.8	6.3
COC(=O)C1=CO[C@@H](OC(=O)NCCOCCO)[C@H]2[C@@H]1CC[C@@H]2C [I-202]	26.2	6.5
COC(=O)C1=CO[C@@H](OC(=O)N2CCN(c3cccc(C(F)(F)F)c3)CC2)[C@@H]2C(C)=CC[C@H]12 [I-130]	5.5	7.5
C[C@@H]1CC[C@@H]2C(C(=O)N3CCN(CCO)CC3)=COC[C@H]12 [I-305]	23.1	7.6
COC(=O)C1=CO[C@@H](OC(=O)Nc2ccc(F)cc2F)[C@H]2[C@@H]1CC[C@@H]2C [I-256]	4	5
COC(=O)C1=CO[C@@H](OC(=O)N2CCSCC2)[C@@H]2C(C)=CC[C@H]12 [I-114]	6.8	9.4
COC(=O)C1=CO[C@@H](OC(=O)NCCN(C)C)[C@@H]2C(C)=CC[C@H]12 [I-117]	26.8	28.1
CCCCCCNC(=O)O[C@@H]1OC=C(C(=O)OC)[C@H]2CC=C(C)[C@@H]12 [I-72]	5.9	42.9
CNC(=O)O[C@@H]1OC=C(C(=O)OC)[C@H]2CC[C@@H](C)[C@@H]12 [I-280]	14.9	72.4
